This is an account of results in PubChem BioAssay AID248 (DTP/NCI, 2004).

The subject of the experiment is L1210 leukemia ip in BDF1 mice, survival T/C. The experiment in a line: NCI In Vivo Anticancer Drug Screen. Data for tumor model L1210 Leukemia (intraperitoneal) in B6D2F1 (BDF1) mice. Particulars: endpoint: mean survival time, higher = longer survival. The essentials: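 Survival endpoint. Drug-treated group vs vehicle group, expressed as T divided by C. Tumor passaged by transplantation.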

Setting [1] is: dose: 100.0 mg/kg/injection, schedule: Q04DX003 (ip), vehicle: saline.
[2] abbreviates: dose: 200.0 mg/kg/injection, schedule: Q04DX003 (ip), vehicle: saline.
Where [3] appears, read: dose: 75.0 mg/kg/injection, schedule: Q01DX001 (ip), vehicle: saline.
[4] abbreviates: dose: 150.0 mg/kg/injection, schedule: Q01DX001 (ip), vehicle: saline.
The mark [5] stands for this setting: dose: 300.0 mg/kg/injection, schedule: Q01DX001 (ip), vehicle: saline.
Where [6] appears, read: dose: 100.0 mg/kg/injection, schedule: Q01DX001 (ip), vehicle: carboxymethylcellulose (CMC).
[7] abbreviates: dose: 50.0 mg/kg/injection, schedule: Q01DX001 (ip), vehicle: saline.
Where [8] appears, read: dose: 100.0 mg/kg/injection, schedule: Q01DX001 (ip), vehicle: saline.
The mark [9] stands for this setting: dose: 200.0 mg/kg/injection, schedule: Q01DX001 (ip), vehicle: saline.
The mark [10] stands for this setting: dose: 400.0 mg/kg/injection, schedule: Q01DX001 (ip), vehicle: saline.
[11] abbreviates: dose: 100.0 mg/kg/injection, schedule: Q04DX002 (ip), vehicle: Klucel (hydroxypropylcellulose) (HPC).
The mark [12] stands for this setting: dose: 200.0 mg/kg/injection, schedule: Q04DX002 (ip), vehicle: Klucel (hydroxypropylcellulose) (HPC).

The structures appear in SMILES notation. Several values for one entry are separate records, joined by “and”; a condition that tells them apart may be missing. Identical values can stand only once. Toxic doses and inconclusive results are not listed.

For `O=C(O)CC1(C(=O)O)CC2CCC1C2` (configuration not stated), the T/C is 91 % of control (dose: 100.0 mg/kg/injection, schedule: Q01DX009 (ip), vehicle: carboxymethylcellulose (CMC)); 103 % of control (dose: 100.0 mg/kg/injection, schedule: Q04DX003 (ip), vehicle: carboxymethylcellulose (CMC)); 94 % of control (dose: 200.0 mg/kg/injection, schedule: Q01DX009 (ip), vehicle: carboxymethylcellulose (CMC)); 103 % of control (dose: 200.0 mg/kg/injection, schedule: Q04DX003 (ip), vehicle: carboxymethylcellulose (CMC)); 92 % of control (dose: 400.0 mg/kg/injection, schedule: Q01DX009 (ip), vehicle: carboxymethylcellulose (CMC)); 100 % of control (dose: 400.0 mg/kg/injection, schedule: Q04DX003 (ip), vehicle: carboxymethylcellulose (CMC)).
`C1OC1C[N+]12CN3CN(CN(C3)C1)C2` (configuration not stated): the T/C by setting is: (dose: 100.0 mg/kg/injection, schedule: Q01DX005 (ip), vehicle: saline) 92 % of control; (dose: 100.0 mg/kg/injection, schedule: Q01DX009 (ip), vehicle: saline) 109 % of control; (dose: 200.0 mg/kg/injection, schedule: Q01DX005 (ip), vehicle: saline) 113 % of control; (dose: 200.0 mg/kg/injection, schedule: Q01DX009 (ip), vehicle: saline) 106 % of control; (dose: 400.0 mg/kg/injection, schedule: Q01DX005 (ip), vehicle: saline) 103 % of control.
With `O=C(Cc1ccccc1)Nc1ccc[n+](Cc2ccc(S(=O)(=O)F)cc2)c1`, the T/C under setting [1] is 108 % of control and 122 % of control; the T/C under setting [2] was 113 % of control and 114 % of control.
For the compound `F[Si](c1ccccc1)(c1ccccc1)c1ccccc1`, the T/C is 88 % of control (dose: 37.5 mg/kg/injection, schedule: Q01DX009 (ip), vehicle: saline); 93 % of control under setting [3]; 95 % of control (dose: 75.0 mg/kg/injection, schedule: Q01DX009 (ip), vehicle: saline); 102 % of control under setting [4]; 95 % of control (dose: 150.0 mg/kg/injection, schedule: Q01DX009 (ip), vehicle: saline); 93 % of control under setting [5].
Regarding `CC/C(=N\[N+](C)(C)C)c1ccccc1`, the T/C was 100 % of control (dose: 18.8 mg/kg/injection, schedule: Q04DX003 (ip), vehicle: saline); 97 % of control (dose: 37.5 mg/kg/injection, schedule: Q04DX003 (ip), vehicle: saline); 100 % of control under setting [3]; 100 % of control (dose: 75.0 mg/kg/injection, schedule: Q04DX003 (ip), vehicle: saline).
Regarding `COc1cc([N+](=O)[O-])ccc1NC(=O)Oc1ccc(F)cc1Cl`, the T/C by setting is: (dose: 100.0 mg/kg/injection, schedule: Q01DX009 (ip), vehicle: Klucel (hydroxypropylcellulose) (HPC)) 94 % of control; (dose: 200.0 mg/kg/injection, schedule: Q01DX009 (ip), vehicle: Klucel (hydroxypropylcellulose) (HPC)) 88 % of control.
With `CCCC[n+]1cccc2ccccc21`, the T/C was 105 % of control (dose: 25.0 mg/kg/injection, schedule: Q01DX001 (ip), vehicle: Klucel (hydroxypropylcellulose) (HPC)); 100 % of control (dose: 50.0 mg/kg/injection, schedule: Q01DX001 (ip), vehicle: Klucel (hydroxypropylcellulose) (HPC)); 96 % of control under setting [6].
On to `CCCCCCCOC(CN)C(Cl)(Cl)Cl` (configuration not stated), for which the T/C (dose: 12.5 mg/kg/injection, schedule: Q01DX001 (ip), vehicle: saline with Tween-80) is 104 % of control; the T/C (dose: 12.5 mg/kg/injection, schedule: Q01DX009 (ip), vehicle: saline with Tween-80) is 100 % of control and 104 % of control; the T/C (dose: 25.0 mg/kg/injection, schedule: Q01DX001 (ip), vehicle: saline with Tween-80) was 100 % of control; the T/C (dose: 25.0 mg/kg/injection, schedule: Q01DX009 (ip), vehicle: saline with Tween-80) was 97 % of control and 91 % of control; the T/C (dose: 25.0 mg/kg/injection, schedule: Q04DX002 (ip), vehicle: saline with Tween-80) was 103 % of control and 108 % of control; the T/C (dose: 50.0 mg/kg/injection, schedule: Q01DX001 (ip), vehicle: saline with Tween-80) is 94 % of control. Moreover, under “dose: 50.0 mg/kg/injection, schedule: Q04DX002 (ip), vehicle: saline with Tween-80”, the T/C was 103 % of control and 105 % of control.
With `CC(N)(C(=O)O)c1ccccc1` (configuration not stated), the T/C (dose: 50.0 mg/kg/injection, schedule: Q04DX003 (ip), vehicle: saline) is 96 % of control; the T/C under setting [1] was 89 % of control; the T/C under setting [2] is 102 % of control.
`CCOC(OCC)c1ccccc1`: the T/C was 113 % of control under setting [7], 115 % of control under setting [8], 109 % of control under setting [9] and 113 % of control under setting [10].
`O=C(Nc1ccccc1)c1cccnc1`: the T/C is 94 % of control under setting [6]; 91 % of control (dose: 200.0 mg/kg/injection, schedule: Q01DX001 (ip), vehicle: carboxymethylcellulose (CMC)); 96 % of control (dose: 400.0 mg/kg/injection, schedule: Q01DX001 (ip), vehicle: carboxymethylcellulose (CMC)).
As for `CCN=C(NCC)c1ccc(NC(=O)c2ccc(C(=O)Nc3ccc(C(=NCC)NCC)cc3)c(Cl)c2)cc1`, the T/C by setting is: (dose: 1.87 mg/kg/injection, schedule: Q01DX Z (ip), vehicle: carboxymethylcellulose (CMC)) 101 % of control; (dose: 3.75 mg/kg/injection, schedule: Q01DX Z (ip), vehicle: carboxymethylcellulose (CMC)) 97 % of control; (dose: 7.5 mg/kg/injection, schedule: Q01DX Z (ip), vehicle: carboxymethylcellulose (CMC)) 103 % of control.
As for `CCOC(=O)Nc1cc2c(c(N)n1)N=C(CN(C)c1ccccc1)CN2`, the T/C by setting is: (dose: 5.0 mg/kg/injection, schedule: Q01DX009 (ip), vehicle: Klucel (hydroxypropylcellulose) (HPC)) 101 % of control; (dose: 6.25 mg/kg/injection, schedule: Q01DX009 (ip), vehicle: Klucel (hydroxypropylcellulose) (HPC)) 116 % of control; (dose: 12.5 mg/kg/injection, schedule: Q01DX009 (ip), vehicle: Klucel (hydroxypropylcellulose) (HPC)) 118 % of control; (dose: 15.0 mg/kg/injection, schedule: Q01DX009 (ip), vehicle: Klucel (hydroxypropylcellulose) (HPC)) 98 % of control; (dose: 25.0 mg/kg/injection, schedule: Q01DX009 (ip), vehicle: Klucel (hydroxypropylcellulose) (HPC)) 120 % of control; (dose: 50.0 mg/kg/injection, schedule: Q04DX002 (ip), vehicle: Klucel (hydroxypropylcellulose) (HPC)) 196 % of control. The T/C was 183 % of control under setting [11] and 96 % of control under setting [12].
For `O=C(COc1ccc(Cl)cc1Cl)OCCCl`, the T/C is 94 % of control under setting [11] and 105 % of control under setting [12].
With `CC(C)CCCC(C)C1CCC2C3CC=C4CC(OC(=O)Nc5ccc(S(=O)(=O)c6ccc(F)cc6)cc5)CCC4(C)C3CCC12C` (configuration not stated), the T/C is 89 % of control (dose: 100.0 mg/kg/injection, schedule: Q01DX001 (sc), vehicle: steriod suspending solution); 92 % of control (dose: 200.0 mg/kg/injection, schedule: Q01DX001 (sc), vehicle: steriod suspending solution); 100 % of control (dose: 400.0 mg/kg/injection, schedule: Q01DX001 (sc), vehicle: steriod suspending solution).
With `O=C(/C=C/c1ccccc1)OC(C(=O)O)c1ccccc1` (configuration not stated), the T/C is 105 % of control under setting [3], 101 % of control under setting [4] and 109 % of control under setting [5].
As for `CCOC(C)=N`, the T/C is 100 % of control under setting [7]; 102 % of control (dose: 50.0 mg/kg/injection, schedule: Q01DX008 (ip), vehicle: saline); 89 % of control and 97 % of control under setting [8]; 112 % of control (dose: 100.0 mg/kg/injection, schedule: Q01DX008 (ip), vehicle: saline); 107 % of control under setting [1]; 105 % of control and 111 % of control under setting [9]. The T/C reads like this: (dose: 200.0 mg/kg/injection, schedule: Q01DX008 (ip), vehicle: saline) 115 % of control; under setting [2], 107 % of control; under setting [10], 115 % of control; (dose: 400.0 mg/kg/injection, schedule: Q04DX003 (ip), vehicle: saline) 110 % of control.
For the compound `N=C1c2ccccc2-c2nc3ccccc3c(=O)n21`, the T/C (dose: 100.0 mg/kg/injection, schedule: Q04DX002 (ip), vehicle: saline) is 86 % of control; the T/C (dose: 200.0 mg/kg/injection, schedule: Q04DX002 (ip), vehicle: saline) is 93 % of control; the T/C (dose: 400.0 mg/kg/injection, schedule: Q04DX002 (ip), vehicle: saline) is 89 % of control.
